The record followed here is ChEMBL document CHEMBL3217679, “Synthesis and biological activity profile of novel 2-cinnamylidene-1,3-diones related to coruscanone A: promising new antileishmanial agents” (Medchemcomm, 2012).

Activity calls are given as the source filed them. The rule behind the calls is not given here.

One data set relates to Nakaseomyces glabratus. In words: Antifungal activity against Candida glabrata ATCC 90030 assessed as growth inhibition after 46 to 50 hrs by modified CLSI method. Type of data set: functional, organism-based.
Another data set relates to Pichia kudriavzevii. Briefly: Antifungal activity against Candida krusei ATCC 6258 assessed as growth inhibition after 46 to 50 hrs by modified CLSI method. Type of data set: functional, organism-based.
The test system of the next data set is Cryptococcus neoformans. In words: Antifungal activity against Cryptococcus neoformans ATCC 90113 assessed as growth inhibition after 70 to 74 hrs by modified CLSI method. Type of data set: functional, organism-based.
The test system of the next data set is Leishmania donovani. Briefly: Antiparasitic activity against Leishmania donovani S1 promastigotes assessed as growth inhibition after 72 hrs by alamar blue assay. Type of data set: functional, organism-based. Conditions: S1, 72 h.
Data set [1] can be described thus: Cytotoxicity against African green monkey Vero cells by neutral red assay. The format is cell-based. Conditions: chlorocebus sabaeus, read-out: TC50 (the source's name).
In a further data set the test system is Candida albicans. In words: Antifungal activity against Candida albicans ATCC 90028 assessed as growth inhibition after 46 to 50 hrs by modified CLSI method. Type of data set: functional, organism-based.
Another data set has as its system Aspergillus fumigatus. Briefly: Antifungal activity against Aspergillus fumigatus ATCC 90906 assessed as growth inhibition after 46 to 50 hrs by alamar blue assay. Type of data set: functional, organism-based.
Data set [2] deals with Plasmodium falciparum. Briefly: Antiparasitic activity against chloroquine-sensitive Plasmodium falciparum D6 assessed as growth inhibition at 16 uM after 48 hrs by pLDH assay. The format is functional, organism-based.
Data set [3] relates to Plasmodium falciparum. In words: Antiparasitic activity against chloroquine-resistant Plasmodium falciparum W2 assessed as growth inhibition at 16 uM after 48 hrs by pLDH assay. Type of data set: functional, organism-based.

For `CC(=O)C(=CC=C(c1ccccc1)c1ccccc1)C(C)=O`, the IC50 in the data set with Nakaseomyces glabratus is above 60 µM; with Pichia kudriavzevii it was above 60 µM; with Cryptococcus neoformans it was 35.3 µM; with Leishmania donovani, 9.29 µM. Further, the concentration for an effect of 90% (IC90) with Leishmania donovani came out at 66.1 µM. In data set [1], the CC50 is above 16.4 µM. Besides, the “growth inhibition (GI)” value in the data set on Candida albicans, in the data set on Aspergillus fumigatus, in the data set on Plasmodium falciparum [2] and with Plasmodium falciparum [3] was “inactive” in each case.
Turning to `C[C@@H]1[C@H](O)[C@@H](C)/C=C/C=C/C=C/C=C/C=C/C=C/C=C/[C@H](O[C@@H]2O[C@H](C)[C@@H](O)[C@H](N)[C@@H]2O)C[C@@H]2O[C@](O)(C[C@@H](O)C[C@@H](O)[C@H](O)CC[C@@H](O)C[C@@H](O)CC(=O)O[C@H]1C)C[C@H](O)[C@H]2C(=O)O` [AMPHOTERICIN B], the IC50 in the data set on Nakaseomyces glabratus came to 0.28 µM; in the data set with Pichia kudriavzevii it was 0.78 µM; in the data set on Cryptococcus neoformans, 0.35 µM; with Leishmania donovani, 0.31 µM. In addition, in the data set with Leishmania donovani, the IC90 is 1.09 µM. Besides, in data set [1], the CC50 was found to be 7.6 µM. Further, the “growth inhibition (GI)” value in the data set on Candida albicans was “inactive”.
On to `COc1ccc(/C=C/C=C2C(=O)CC(c3ccccc3)CC2=O)cc1` (centres undefined), for which the IC50 in the data set on Nakaseomyces glabratus is above 60 µM; with Pichia kudriavzevii, above 60 µM; in the data set with Cryptococcus neoformans, above 60 µM; in the data set with Leishmania donovani, 7.52 µM. Besides, in the data set with Leishmania donovani, the IC90 was 14.7 µM. Moreover, the CC50 in data set [1] was above 14.3 µM. For the same compound, the “growth inhibition (GI)” value in the data set with Candida albicans, in the data set with Aspergillus fumigatus, in the data set with Plasmodium falciparum [2] and in the data set on Plasmodium falciparum [3] was “inactive” each time.
For the compound `O=C1CCC(=O)C1=C/C=C/c1ccc(Br)cc1`, the IC50 in the data set with Nakaseomyces glabratus was above 60 µM; in the data set on Pichia kudriavzevii, above 60 µM; with Cryptococcus neoformans, 26.9 µM; in the data set with Leishmania donovani it was 8.58 µM. Also, the IC90 in the data set on Leishmania donovani worked out at 14.1 µM. In addition, the CC50 in data set [1] is above 16.3 µM. Also, the “growth inhibition (GI)” value in the data set on Candida albicans, in the data set on Aspergillus fumigatus, in the data set on Plasmodium falciparum [2] and in the data set with Plasmodium falciparum [3] was “inactive” in each case.
As to `CC1(C)CC(=O)C(=C/C=C/c2ccccc2)C(=O)C1`, the IC50 with Nakaseomyces glabratus was 35.3 µM; in the data set on Pichia kudriavzevii, above 60 µM; with Cryptococcus neoformans, 19 µM; with Leishmania donovani, 20.1 µM. The IC90 in the data set on Leishmania donovani turned out to be 27.5 µM. In addition, the CC50 in data set [1] was above 18.7 µM. Moreover, the “growth inhibition (GI)” value with Candida albicans, in the data set with Aspergillus fumigatus, with Plasmodium falciparum [2] and with Plasmodium falciparum [3] was “inactive” throughout.
Regarding `C/C=C/C=C/C=C1C(=O)CCCC1=O`, the IC50 was above 60 µM in the data set on Nakaseomyces glabratus, above 60 µM with Pichia kudriavzevii, above 60 µM in the data set with Cryptococcus neoformans and 56.8 µM in the data set with Leishmania donovani. Further, the IC90 in the data set with Leishmania donovani is above 100 µM. In [1], the CC50 was above 25 µM. Also, the “growth inhibition (GI)” value in the data set with Candida albicans, in the data set with Aspergillus fumigatus, in the data set with Plasmodium falciparum [2] and in the data set on Plasmodium falciparum [3] was “inactive” in each case.
On to `N=C(N)c1ccc(OCCCCCOc2ccc(C(=N)N)cc2)cc1` [PENTAMIDINE], for which, in the data set with Leishmania donovani, the IC50 is 3.82 µM and the IC90 is 12.4 µM. Also, the “growth inhibition (GI)” value in the data set on Candida albicans was “inactive”.
For the compound `C/C=C/C=C/C=C1C(=O)CC(C)(C)CC1=O`, the IC50 is above 60 µM in the data set on Nakaseomyces glabratus, above 60 µM in the data set with Pichia kudriavzevii, above 60 µM in the data set with Cryptococcus neoformans and 45.8 µM with Leishmania donovani. For the same compound, the IC90 with Leishmania donovani is above 100 µM. For the same compound, the CC50 in data set [1] was above 21.8 µM. In addition, the “growth inhibition (GI)” value in the data set with Candida albicans, in the data set with Aspergillus fumigatus, in the data set on Plasmodium falciparum [2] and with Plasmodium falciparum [3] was “inactive” throughout.
Regarding `COc1ccc(/C=C/C=C(C(C)=O)C(C)=O)cc1`, the IC50 in the data set with Nakaseomyces glabratus is above 60 µM; in the data set with Pichia kudriavzevii it was above 60 µM; with Cryptococcus neoformans, above 60 µM; in the data set with Leishmania donovani, 38.5 µM. Moreover, in the data set with Leishmania donovani, the IC90 was above 100 µM. Also, the CC50 in [1] was above 19.5 µM. Also, the “growth inhibition (GI)” value with Candida albicans, in the data set on Aspergillus fumigatus, with Plasmodium falciparum [2] and in the data set with Plasmodium falciparum [3] was “inactive” throughout.
On to `CC(=O)/C(=C\C=C\c1ccccc1)C(=O)OC(C)(C)C`, for which the IC50 in the data set on Nakaseomyces glabratus was above 60 µM; in the data set with Pichia kudriavzevii, above 60 µM; with Cryptococcus neoformans, above 60 µM; in the data set on Leishmania donovani, 46.6 µM. In addition, the IC90 in the data set with Leishmania donovani is 99.2 µM. The CC50 in data set [1] is above 17.5 µM. The “growth inhibition (GI)” value in the data set with Candida albicans, with Aspergillus fumigatus, in the data set with Plasmodium falciparum [2] and in the data set with Plasmodium falciparum [3] was “inactive” in each case.
Take `CC1(C)CCC(=O)/C(=C\C=C\c2ccccc2)C1=O`: the IC50 was above 60 µM with Nakaseomyces glabratus, above 60 µM with Pichia kudriavzevii, 19.9 µM with Cryptococcus neoformans and 11.8 µM in the data set on Leishmania donovani. Moreover, in the data set on Leishmania donovani, the concentration for an effect of 90% (IC90) was found to be 20.1 µM. Besides, the CC50 in data set [1] is above 18.7 µM. Moreover, the “growth inhibition (GI)” value in the data set with Candida albicans, in the data set with Aspergillus fumigatus, with Plasmodium falciparum [2] and in the data set on Plasmodium falciparum [3] was “inactive” in each case.
As to `O=C1CCC(=O)C1=C/C=C/c1ccccc1`, the IC50 in the data set with Nakaseomyces glabratus was above 60 µM; in the data set on Pichia kudriavzevii it was 42.6 µM; with Cryptococcus neoformans, 11.9 µM; with Leishmania donovani, 2.16 µM. In addition, in the data set with Leishmania donovani, the IC90 came out at 3.58 µM. In addition, the CC50 in data set [1] is above 22.4 µM. Also, the “growth inhibition (GI)” value in the data set with Candida albicans, in the data set on Aspergillus fumigatus, in the data set on Plasmodium falciparum [2] and with Plasmodium falciparum [3] was “inactive” in each case.
As for `CC1(C)CC(=O)C(=CC=C(c2ccccc2)c2ccccc2)C(=O)C1`, the IC50 was above 60 µM with Nakaseomyces glabratus, above 60 µM in the data set on Pichia kudriavzevii, 23.6 µM in the data set with Cryptococcus neoformans and 9.38 µM with Leishmania donovani. In addition, the IC90 in the data set with Leishmania donovani was determined as 26.6 µM. Further, the CC50 in data set [1] was above 14.4 µM. Besides, the “growth inhibition (GI)” value in the data set with Candida albicans, with Aspergillus fumigatus, in the data set on Plasmodium falciparum [2] and with Plasmodium falciparum [3] was “inactive” each time.
Turning to `CC(=O)C(=C/C=C/c1ccc(Br)cc1)C(C)=O`, the IC50 is above 60 µM with Nakaseomyces glabratus, above 60 µM in the data set on Pichia kudriavzevii, 11.7 µM in the data set with Cryptococcus neoformans and 9.55 µM in the data set on Leishmania donovani. The IC90 with Leishmania donovani stood at 24.6 µM. Further, the CC50 in data set [1] was above 16.2 µM. Moreover, the “growth inhibition (GI)” value in the data set on Candida albicans, with Aspergillus fumigatus, with Plasmodium falciparum [2] and in the data set on Plasmodium falciparum [3] was “inactive” in each case.
As for `COC(/C=C/c1ccccc1)=C1\C(=O)C=C(C)C1=O` [CORUSCANONE A], the CC50 in [1] was 19.3 µM.
Regarding `COc1ccc(/C=C/C=C2C(=O)CCC2=O)cc1`, the IC50 was found to be 35 µM in the data set on Nakaseomyces glabratus, 24.1 µM in the data set with Pichia kudriavzevii, 13.4 µM with Cryptococcus neoformans and 7.01 µM in the data set on Leishmania donovani. Also, the IC90 in the data set on Leishmania donovani is 19.8 µM. Further, the CC50 in data set [1] is above 19.6 µM. For the same compound, the “growth inhibition (GI)” value with Candida albicans and in the data set with Aspergillus fumigatus was “inactive” throughout.
